Measurements: ChEMBL document CHEMBL4311962, “Benzofuran-isatin hybrids and their in vitro anti-mycobacterial activities against multi-drug resistant Mycobacterium tuberculosis” (Eur J Med Chem, 2019)
In brackets after ≈: the same amount, converted by molar mass.

How the values were obtained:
[1] = tested on: Mycobacterium tuberculosis; test: Antimycobacterial activity against multidrug (INH and RIF)-resistant Mycobacterium tuberculosis clinical isolate 1 assessed as inhibition of bacterial growth incubated for 7 days by rapid direct susceptibility test technique; assay type: functional; conditions: 168 h
[2] = tested on: Mycobacterium tuberculosis; test: Antimycobacterial activity against multidrug (ethambutol, INH and RIF)-resistant Mycobacterium tuberculosis clinical isolate 2 assessed as inhibition of bacterial growth incubated for 7 days by rapid direct susceptibility test technique; assay type: functional; conditions: 168 h
[3] = Selectivity index, ratio of CC50 for CHO cells to MIC for multidrug (INH and RIF)-resistant Mycobacterium tuberculosis clinical isolate 1; assay type: toxicity; conditions: hamster, read-out: Selectivity Index
[4] = tested on: Mycobacterium tuberculosis; test: Potency index, ratio of ciprofloxacin MIC to compound MIC for multidrug (INH and RIF)-resistant Mycobacterium tuberculosis clinical isolate 1 incubated for 7 days by rapid direct susceptibility test technique; assay type: functional
[5] = tested on: Mycobacterium tuberculosis; test: Potency index, ratio of ciprofloxacin MIC to compound MIC for multidrug (ethambutol, INH and RIF)-resistant Mycobacterium tuberculosis clinical isolate 2 incubated for 7 days by rapid direct susceptibility test technique; assay type: functional
[6] = tested on: Mycobacterium tuberculosis; test: Potency index, ratio of isoniazid MIC to compound MIC for multidrug (INH and RIF)-resistant Mycobacterium tuberculosis clinical isolate 1 incubated for 7 days by rapid direct susceptibility test technique; assay type: functional
[7] = tested on: Mycobacterium tuberculosis; test: Potency index, ratio of isoniazid MIC to compound MIC for multidrug (ethambutol, INH and RIF)-resistant Mycobacterium tuberculosis clinical isolate 2 incubated for 7 days by rapid direct susceptibility test technique; assay type: functional
[8] = tested on: Mycobacterium tuberculosis; test: Potency index, ratio of rifampicin MIC to compound MIC for multidrug (INH and RIF)-resistant Mycobacterium tuberculosis clinical isolate 1 incubated for 7 days by rapid direct susceptibility test technique; assay type: functional
[9] = tested on: Mycobacterium tuberculosis; test: Potency index, ratio of rifampicin MIC to compound MIC for multidrug (ethambutol, INH and RIF)-resistant Mycobacterium tuberculosis clinical isolate 2 incubated for 7 days by rapid direct susceptibility test technique; assay type: functional

Compound | MIC [1] | MIC [2] | selectivity ratio [3] | Ratio [4] | Ratio [5] | Ratio [6] | Ratio [7] | Ratio [8] | Ratio [9]
CCOC(=O)c1c(-c2ccccc2)oc2ccc(OCCCN3C(=O)C(=O)c4cc(OC)ccc43)cc12 | 8 µg/mL (≈ 16 µM) | 16 µg/mL (≈ 32 µM) | 64 | – | – | – | – | – | –
CCOC(=O)c1c(-c2ccccc2)oc2ccc(OCCCN3C(=O)C(=O)c4ccccc43)cc12 | 4 µg/mL (≈ 8.52 µM) | 8 µg/mL (≈ 17 µM) | 63 | – | – | – | – | – | –
CCOC(=O)c1c(-c2ccc(OC)cc2)oc2ccc(OCCCN3C(=O)C(=O)c4cc(F)ccc43)cc12 | 2 µg/mL (≈ 3.86 µM) | 2 µg/mL (≈ 3.86 µM) | 32 | – | – | – | – | – | –
CCOC(=O)c1c(-c2ccc(OC)cc2)oc2ccc(OCCCCCN3C(=O)C(=O)c4ccccc43)cc12 | 2 µg/mL (≈ 3.79 µM) | 1 µg/mL (≈ 1.9 µM) | 64 | – | – | – | – | – | –
CCOC(=O)c1c(-c2ccccc2)oc2ccc(OCCCCCCN3C(=O)C(=O)c4ccccc43)cc12 | 1 µg/mL (≈ 1.95 µM) | 2 µg/mL (≈ 3.91 µM) | 128 | – | – | – | – | – | –
CCOC(=O)c1c(-c2ccc(OC)cc2)oc2ccc(OCCCCN3C(=O)C(=O)c4ccccc43)cc12 | 2 µg/mL (≈ 3.89 µM) | 4 µg/mL (≈ 7.79 µM) | 128 | – | – | – | – | – | –
NNC(=O)c1ccncc1 [ISONIAZID] | > 128 µg/mL | > 128 µg/mL | < 2 | – | – | – | – | – | –
CCOC(=O)c1c(-c2ccc(F)cc2)oc2ccc(OCCN3C(=O)C(=O)c4cc(F)ccc43)cc12 | 2 µg/mL (≈ 4.07 µM) | 2 µg/mL (≈ 4.07 µM) | 32 | – | – | – | – | – | –
CCOC(=O)c1c(-c2ccc(F)cc2)oc2ccc(OCCN3C(=O)C(=O)c4cc(OC)ccc43)cc12 | 8 µg/mL (≈ 15.9 µM) | 4 µg/mL (≈ 7.94 µM) | 64 | – | – | – | – | – | –
CCOC(=O)c1c(-c2ccc(F)cc2)oc2ccc(OCCN3C(=O)C(=O)c4ccccc43)cc12 | 4 µg/mL (≈ 8.45 µM) | 4 µg/mL (≈ 8.45 µM) | 32 | – | – | – | – | – | –
CCOC(=O)c1c(-c2ccccc2)oc2ccc(OCCCN3C(=O)/C(=N/O)c4cc(OC)ccc43)cc12 | 16 µg/mL (≈ 31.1 µM) | 16 µg/mL (≈ 31.1 µM) | 32 | – | – | – | – | – | –
CCOC(=O)c1c(-c2ccc(OC)cc2)oc2ccc(OCCCCCCN3C(=O)/C(=N/NC(N)=S)c4cc(F)ccc43)cc12 | 0.125 µg/mL (≈ 0.198 µM) | 0.25 µg/mL (≈ 0.395 µM) | 1024 | 8 - 16 | 8 - 16 | >=512 | >=512 | >=512 | >=512
CCOC(=O)c1c(-c2ccc(F)cc2)oc2ccc(OCCCCCCN3C(=O)C(=O)c4cc(OC)ccc43)cc12 | 2 µg/mL (≈ 3.57 µM) | 2 µg/mL (≈ 3.57 µM) | 128 | – | – | – | – | – | –
CCOC(=O)c1c(-c2ccc(F)cc2)oc2ccc(OCCCCCCN3C(=O)/C(=N\O)c4cc(OC)ccc43)cc12 | 4 µg/mL (≈ 6.96 µM) | 1 µg/mL (≈ 1.74 µM) | 128 | – | – | – | – | – | –
CCOC(=O)c1c(-c2ccccc2)oc2ccc(OCCCN3C(=O)/C(=N/O)c4ccccc43)cc12 | 8 µg/mL (≈ 16.5 µM) | 16 µg/mL (≈ 33 µM) | 64 | – | – | – | – | – | –
CCOC(=O)c1c(-c2ccccc2)oc2ccc(OCCN3C(=O)C(=O)c4cc(F)ccc43)cc12 | 4 µg/mL (≈ 8.45 µM) | 2 µg/mL (≈ 4.22 µM) | 16 | – | – | – | – | – | –
CCOC(=O)c1c(-c2ccc(F)cc2)oc2ccc(OCCCN3C(=O)C(=O)c4ccccc43)cc12 | 1 µg/mL (≈ 2.05 µM) | 2 µg/mL (≈ 4.1 µM) | 256 | – | – | – | – | – | –
CCOC(=O)c1c(-c2ccc(F)cc2)oc2ccc(OCCCCCCN3C(=O)/C(=N/OC)c4ccccc43)cc12 | 0.5 µg/mL (≈ 0.895 µM) | 0.25 µg/mL (≈ 0.448 µM) | 258 | – | – | – | – | – | –
CCOC(=O)c1c(-c2ccc(F)cc2)oc2ccc(OCCCN3C(=O)/C(=N/O)c4ccccc43)cc12 | 8 µg/mL (≈ 15.9 µM) | 4 µg/mL (≈ 7.96 µM) | 32 | – | – | – | – | – | –
CO[C@H]1/C=C/O[C@@]2(C)Oc3c(C)c(O)c4c(O)c(c(/C=N/N5CCN(C)CC5)c(O)c4c3C2=O)NC(=O)/C(C)=C\C=C\[C@H](C)[C@H](O)[C@@H](C)[C@@H](O)[C@@H](C)[C@H](OC(C)=O)[C@@H]1C [RIFAMPIN] | 64 µg/mL (≈ 77.8 µM) | > 128 µg/mL | 8 | – | – | – | – | – | –
CNC(=O)c1c(-c2ccc(O)cc2)oc2ccc(O)c(CN3CCCCC3)c12 | < 0.06 µg/mL | < 0.06 µg/mL | > 16400 | – | – | – | – | – | –
CCO/N=C1\C(=O)N(CCCCCCOc2ccc3oc(-c4ccc(F)cc4)c(C(=O)OCC)c3c2)c2ccc(OC)cc21 | 2 µg/mL (≈ 3.32 µM) | 1 µg/mL (≈ 1.66 µM) | 128 | – | – | – | – | – | –
